Results on 3 molecules are retold here after patent US12115180B2 (Board of Supervisors of Louisiana State University and …, priority 2020, dated 2024).

Molecules are shown by their SMILES.

One data set has as its system p53. Kind of data set: Western blot of p53 expression in NRCs. Format: cell-based, Sprague Dawley rat. The note with it: 10 μM, 24 h. As to the method: (§1) Cell Lines and Maintenance. Primary Neonatal Rat Cardiomyocyte Culture. The inventors isolated neonatal rat cardiomyocytes (NRCs) from the ventricles of 1-2 day old Sprague Dawley rat pups as described previously. Briefly, ventricular tissues excised from rat pups were digested with collagenase at 4° C. overnight with subsequent digestion in trypsin. Next, cells were preplated to remove cardiac fibroblasts, followed by plating of isolated cardiomyocytes at 1.5×10^6 cells per 10 cm^2 plate in αMEM containing 10% fetal bovine serum (FBS) (Gibco) and 1% antibiotic-antimycotic (Gibco) media. After 24 h, NRCs were maintained in Dulbecco's modified Eagle's medium (DMEM) (Gibco) containing 2% FBS and 1% antibiotic-antimycotic and subjected to different treatments, as described previously. All cell culture treatments were repeated in three independent experiments.
Protein Extraction and Western Blot Analyses. NRCs were washed with PBS and lysed with CelLytic M (Sigma-Aldrich) lysis buffer containing a complete protease inhibitor cocktail (Roche®). […] The protein concentration of the soluble cardiomyocyte lysates was measured using the modified Bradford reagent relative to a BSA standard curve (Bio-Rad®) in a 1 mL cuvette on a DS-11 FX+ spectrophotometer (DeNovix®, Wilmington, DE). […]
(Immunoblotting shows a protein as a band on a membrane.)

Data set [1] deals with neonatal rat cardiomyocytes (NRCs). As to the kind of experiment: Lactate dehydrogenase release assay for cardiac myocytes. Format: cell-based, Sprague Dawley rat. To be noted: 5 μM, 10 μM, and 25 μM; 24 h. Here is the method:
as §1
Biochemical Assays. Lactate Dehydrogenase Release Assay for Cardiac Myocytes. Following treatments, culture media were collected and cleared by centrifugation at 5000 g for 10 min. Lactate dehydrogenase (LDH) release into culture media was measured using a cytotoxicity detection kit (Roche®) as per the manufacturer's instructions. Color development was measured using a microplate absorbance reader at an absorbance of 492 nm (Bio-Rad®).

The nature of data set [2]: pKa and protonation of the side-chain amines. Format: physicochemical.

As to `COc1cccc2c1C(=O)c1c(O)c3c(c(O)c1C2=O)C[C@@](O)(C(=O)CO)C[C@@H]3O[C@H]1C[C@H](N)[C@H](O)[C@H](C)O1` [con-DOX, doxorubicin], in the data set with p53, the p53 protein expression entry was “increased p53 expression”. In data set [1], the “LDH release (cell death)” value is listed as “dose-dependent increase in cell death”.

One may read the pKa as the pH at which an ionisable group is half protonated. The molecule `NCCN1CCCC1` [PY, 2-pyrrolidine-1-yl-ethyl-amine] registered a pKa in data set [2] of 5.4. For the same molecule, the fraction protonated was 89% in data set [2] (pH 4.5) and 44% in data set [2] (pH 5.5).

Molecule `CCCCN(CCN)CCCC` had a pKa in data set [2] of 4. The fraction protonated in data set [2] (pH 4.5) is 24%; in data set [2] (pH 5.5), 3%.
